In US9340590B2 (priority 2011, dated 2016):
pIC50: −log10 of the molar value. Read-outs that look alike come from different tables or passages of the source. Positions of bridges follow the written chain, without caps; N, C: chain ends. Residues, ends and D or L forms follow the SMILES beside them.

Biological target: hNav1.7 (Homo sapiens, UniProt Q15858)
Assay: cell-based
Type: cell-based
Settings: read-out: IWQ Use Nav1.7

Chain of hNav1.7 (Q15858 whole entry, looked up): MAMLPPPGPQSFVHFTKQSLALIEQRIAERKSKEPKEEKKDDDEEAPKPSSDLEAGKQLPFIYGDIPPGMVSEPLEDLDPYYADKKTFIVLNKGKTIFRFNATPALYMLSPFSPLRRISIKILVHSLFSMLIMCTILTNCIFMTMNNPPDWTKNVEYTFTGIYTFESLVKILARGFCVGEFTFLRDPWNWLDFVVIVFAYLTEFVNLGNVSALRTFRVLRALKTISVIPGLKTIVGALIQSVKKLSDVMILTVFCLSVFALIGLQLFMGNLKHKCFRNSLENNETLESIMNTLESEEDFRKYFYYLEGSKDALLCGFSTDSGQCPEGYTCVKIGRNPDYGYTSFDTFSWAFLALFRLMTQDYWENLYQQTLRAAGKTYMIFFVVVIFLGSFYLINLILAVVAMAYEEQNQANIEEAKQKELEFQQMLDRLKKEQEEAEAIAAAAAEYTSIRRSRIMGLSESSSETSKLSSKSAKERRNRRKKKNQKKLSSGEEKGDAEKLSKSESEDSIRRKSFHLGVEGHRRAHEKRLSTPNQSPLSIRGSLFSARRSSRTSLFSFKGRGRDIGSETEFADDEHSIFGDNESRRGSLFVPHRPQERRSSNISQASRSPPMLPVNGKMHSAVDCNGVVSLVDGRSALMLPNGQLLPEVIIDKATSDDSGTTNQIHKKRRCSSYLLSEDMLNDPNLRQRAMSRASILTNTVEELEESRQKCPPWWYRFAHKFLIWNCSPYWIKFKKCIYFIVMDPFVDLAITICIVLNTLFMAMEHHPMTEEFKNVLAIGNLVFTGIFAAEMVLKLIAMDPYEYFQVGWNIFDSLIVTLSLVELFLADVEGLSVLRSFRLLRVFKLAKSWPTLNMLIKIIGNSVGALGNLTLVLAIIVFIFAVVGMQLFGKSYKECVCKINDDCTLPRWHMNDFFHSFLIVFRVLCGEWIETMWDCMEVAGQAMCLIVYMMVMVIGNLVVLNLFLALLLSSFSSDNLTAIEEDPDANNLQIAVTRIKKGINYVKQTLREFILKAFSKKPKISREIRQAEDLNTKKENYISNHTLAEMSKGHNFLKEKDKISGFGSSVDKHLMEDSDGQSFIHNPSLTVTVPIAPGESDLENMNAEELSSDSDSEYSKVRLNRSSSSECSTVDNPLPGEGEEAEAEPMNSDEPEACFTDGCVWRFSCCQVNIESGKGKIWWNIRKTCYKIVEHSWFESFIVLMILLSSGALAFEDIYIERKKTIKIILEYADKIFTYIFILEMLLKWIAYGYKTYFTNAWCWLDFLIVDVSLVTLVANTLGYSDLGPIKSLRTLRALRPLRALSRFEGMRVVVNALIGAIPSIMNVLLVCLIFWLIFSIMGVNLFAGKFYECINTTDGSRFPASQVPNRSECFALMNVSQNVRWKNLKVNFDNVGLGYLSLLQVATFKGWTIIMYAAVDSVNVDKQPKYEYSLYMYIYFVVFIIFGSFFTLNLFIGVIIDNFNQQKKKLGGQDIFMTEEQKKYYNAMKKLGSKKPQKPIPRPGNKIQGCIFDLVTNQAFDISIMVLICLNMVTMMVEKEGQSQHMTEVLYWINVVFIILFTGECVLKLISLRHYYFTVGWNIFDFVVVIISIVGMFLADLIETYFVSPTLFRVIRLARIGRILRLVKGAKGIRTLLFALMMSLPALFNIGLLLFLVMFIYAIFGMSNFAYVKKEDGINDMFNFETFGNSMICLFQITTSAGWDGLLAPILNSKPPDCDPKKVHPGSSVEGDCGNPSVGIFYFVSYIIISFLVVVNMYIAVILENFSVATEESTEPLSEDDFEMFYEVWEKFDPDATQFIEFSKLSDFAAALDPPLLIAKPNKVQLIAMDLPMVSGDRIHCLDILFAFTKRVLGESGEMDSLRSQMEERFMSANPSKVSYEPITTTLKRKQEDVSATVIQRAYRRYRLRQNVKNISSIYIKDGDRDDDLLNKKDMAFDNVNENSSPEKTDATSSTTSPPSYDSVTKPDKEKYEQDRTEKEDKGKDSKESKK

How did the pIC50 (IonWorks Quattro, clamped to −110 mV, depolarized to −10 mV, 5 min after compound, n=2) turn out when `CC[C@H](C)[C@@H]1NC(=O)[C@@H]2CSSC[C@@H]3NC(=O)[C@H](C(C)C)NC(=O)[C@H](CC(C)C)NC(=O)[C@H](CC(N)=O)NC(=O)[C@@H]4CCCN4C(=O)[C@H](CCCNC(=N)N)NC(=O)[C@H](CSSC[C@H](NC(=O)[C@@H](N)CC(=O)O)C(=O)N[C@@H](CC(C)C)C(=O)N[C@@H](C)C(=O)N[C@@H](Cc4ccccc4)C(=O)N[C@@H](CCSC)C(=O)N[C@@H](CCCNC(=N)N)C(=O)N[C@@H](CCCCN)C(=O)N2)NC(=O)[C@H](CSSC[C@@H](C(=O)N[C@@H](CCCCN)C(=O)N[C@@H](Cc2ccc(O)cc2)C(=O)N[C@H](C(=O)N[C@@H](Cc2ccccc2)C(N)=O)C(C)C)NC(=O)[C@H](Cc2c[nH]c4ccccc24)NC(=O)[C@H](CCCCN)NC(=O)[C@H](Cc2c[nH]cn2)NC(=O)[C@H]([C@@H](C)O)NC(=O)[C@H](CCCNC(=N)N)NC(=O)[C@H](CO)NC3=O)NC(=O)[C@H](CCCCN)NC(=O)[C@H](CC(=O)O)NC(=O)[C@H](CC(N)=O)NC(=O)[C@H](CC(=O)O)NC(=O)[C@@H]2CCCN2C1=O` [SEQ ID NO: 141] (H-DCLAFMRKCIPDNDKCCRPNLVCSRTHKWCKYVF-NH2; disulfide 2-17, 9-23, 16-30) was run?
Its pIC50 is 6.57.

How did the pIC50 (IonWorks Quattro, Use) turn out when `CSCC[C@@H]1NC(=O)[C@H](Cc2ccccc2)NC(=O)CNC(=O)[C@H](CC(C)C)NC(=O)[C@@H](NC(=O)[C@@H](N)CC(=O)O)CSSC[C@@H]2NC(=O)[C@@H]3CSSC[C@@H](C(=O)N[C@@H](CCCCN)C(=O)N[C@@H](Cc4ccc(O)cc4)C(=O)N[C@H](C(=O)N[C@@H](Cc4ccccc4)C(N)=O)C(C)C)NC(=O)[C@H](Cc4c[nH]c5ccccc45)NC(=O)[C@H](CCCCN)NC(=O)[C@H](Cc4c[nH]cn4)NC(=O)[C@H]([C@@H](C)O)NC(=O)[C@H](CCCNC(=N)N)NC(=O)[C@H](CO)NC(=O)[C@H](CSSC[C@H](NC(=O)[C@H](CCCCN)NC(=O)[C@H](CCCNC(=N)N)NC1=O)C(=O)N[C@@H](CO)C(=O)N1CCC[C@H]1C(=O)N[C@@H](CC(=O)O)C(=O)N[C@@H](CC(N)=O)C(=O)N[C@@H](CC(=O)O)C(=O)N[C@@H](CCCCN)C(=O)N3)NC(=O)[C@H](C(C)C)NC(=O)[C@H](CC(C)C)NC(=O)[C@H](CC(N)=O)NC(=O)[C@@H]1CCCN1C(=O)[C@H](CCCNC(=N)N)NC2=O` [compound 305] (H-DCLGFMRKCSPDNDKCCRPNLVCSRTHKWCKYVF-NH2; disulfide 2-17, 9-23, 16-30) was run?
The pIC50 was 7.30.

How did the pIC50 turn out when `CC[C@H](C)[C@@H]1NC(=O)[C@@H]2CSSC[C@@H]3NC(=O)[C@H](C(C)C)NC(=O)[C@H](CC(C)C)NC(=O)[C@H](CC(N)=O)NC(=O)[C@@H]4CCCN4C(=O)[C@H](CCCNC(=N)N)NC(=O)[C@H](CSSC[C@H](NC(=O)[C@@H](N)CC(=O)O)C(=O)N[C@@H](CC(C)C)C(=O)NCC(=O)N[C@@H](Cc4ccccc4)C(=O)N[C@@H](CCSC)C(=O)N[C@@H](CCCNC(=N)N)C(=O)N[C@@H](CCCCN)C(=O)N2)NC(=O)[C@H](CSSC[C@@H](C(=O)N[C@@H](CCCCN)C(=O)N[C@@H](CCCNC(=N)N)C(=O)N[C@H](C(=O)N[C@@H](Cc2ccccc2)C(N)=O)C(C)C)NC(=O)[C@H](Cc2c[nH]c4ccccc24)NC(=O)[C@H](CCCCN)NC(=O)[C@H](Cc2c[nH]cn2)NC(=O)[C@H]([C@@H](C)O)NC(=O)[C@H](CCCNC(=N)N)NC(=O)[C@H](CO)NC3=O)NC(=O)[C@H](CCCCN)NC(=O)[C@H](CC(=O)O)NC(=O)[C@H](CC(N)=O)NC(=O)[C@H](CC(=O)O)NC(=O)[C@@H]2CCCN2C1=O` [compound 159] (H-DCLGFMRKCIPDNDKCCRPNLVCSRTHKWCKRVF-NH2; disulfide 2-17, 9-23, 16-30) was run?
Its pIC50 is 5.99.
